{"source": "patent US20130310436A1", "about": "“METHODS FOR PREDICTING RESPONSE TO BETA-BLOCKER THERAPY IN NON-ISCHEMIC HEART FAILURE PATIENTS” (The Regents of the University of Colorado, a body corporate, priority 2012, published 2013)", "format_in_all_cases": "in vivo, human", "key": {"[1]": {"system": "patients with non-ischemic HFREF", "experiment": "BEST trial retrospective analysis: cumulative all-cause mortality, bucindolol vs placebo, by latent class subtype", "excerpt": "(§1) Methods: A total of 1121 patients with non-ischemic HFREF from the β-blocker Evaluation of Survival Trial were categorized according to 27 clinical features. See Tables 1 and 2 for the clinical features or information used. Latent class analysis was used to generate two latent class models, LCM A and B, Tables 3 and 4, respectively, to identify HFREF subtypes. LCM A consisted of features associated with HF pathogenesis, whereas LCM B consisted of markers of HF progression and severity. The Seattle Heart Failure Model (SHFM) Score was also calculated for all patients. Mortality, improvement in left ventricular ejection fraction (LVEF) defined as an increase in LVEF ≧5% and a final LVEF of […] after 12 months, and effect of bucindolol on both outcomes were compared across HFREF subtypes. Performance of models that included a combination of LCM subtypes and SHFM scores towards predicting mortality and LVEF response was estimated and subsequently validated using leave-one-out cross-validation and data from the Multicenter Oral Carvedilol Heart Failure Assessment (MOCHA) Trial.\n(§2) Methods: All patients had New York Heart Association (NYHA) class III or IV HFREF (LVEF ≦35%) and were randomized in a double-blind fashion to either bucindolol (a β-blocker) or placebo. Patients were considered ischemic if they had ≧70% obstruction in a major epicardial coronary artery by angiography or evidence of prior myocardial infarction and excluded from this analysis. The primary endpoint was cumulative all-cause mortality. Secondary endpoints were all-cause mortality at one year and LVEF response defined as improvement in LVEF ≧5% with a final LVEF of ≧35% as measured using multi-gated acquisition scan (MUGA). […] They were randomized to placebo, low (6.25 mg bid), medium (12.5 mg bid), or high-dose (25 mg bid) carvedilol. Death and LVEF improvement as measured by MUGA were secondary endpoints in the original MOCHA analysis. Mortality data was only available up to one year of follow-up in MOCHA.\n(§3) Association between latent class models and outcomes: Cox proportional-hazards models and the log-rank test were used to examine the associations between latent classes and cumulative all-cause mortality according to the intention-to-treat principle. These models were fit using the coxph and survfit functions from the survival library in the R statistical package. Logistic regression models were used for the one-year mortality and LVEF response outcomes. Interactions between latent classes and the treatment groups were used to estimate the response to treatment within each subtype."}, "[2]": {"system": "patients with non-ischemic HFREF", "experiment": "BEST trial retrospective analysis: all-cause mortality at one year, bucindolol vs placebo, by latent class subtype", "excerpt": "as §1\nas §2, with “MOCHA. […]” for “MOCHA.”"}, "[3]": {"system": "patients with non-ischemic HFREF", "experiment": "BEST trial retrospective analysis: LVEF response (improvement in LVEF ≧5% with final LVEF ≧35%, MUGA), bucindolol vs placebo, by latent class subtype", "excerpt": "as §1, §2, §3"}}, "data": [{"compound": "CC(C)(Cc1c[nH]c2ccccc12)NCC(O)COc1ccccc1C#N", "note": "(stereo not shown) [bucindolol]", "values": [{"measurement": "reduction in cumulative all-cause mortality associated with bucindolol", "setting": "[1]; LCM A subtype A1", "result": "no reduction"}, {"measurement": "reduction in mortality with bucindolol", "setting": "[1]; LCM A subtype A2 (discussion)", "result": "no significant reduction"}, {"measurement": "all-cause mortality with bucindolol", "setting": "[1]; LCM A subtype A6, only LCM A subtype (discussion)", "result": "decrease"}, {"measurement": "absolute risk reduction, cumulative all-cause mortality", "setting": "[1]; LCM A subtype A6, p=0.01", "result": 10.2, "unit": "%"}, {"measurement": "relative risk reduction, cumulative all-cause mortality", "setting": "[1]; LCM A subtype A6, p=0.01", "result": 42, "unit": "%"}, {"measurement": "improvement in mortality associated with bucindolol", "setting": "[1]; LCM B subtype B2, p=0.01", "result": "significant improvement"}, {"measurement": "overall effect of bucindolol", "setting": "[1]; all non-ischemic BEST patients (discussion)", "result": "not significant"}, {"measurement": "patients in the bucindolol group died (cumulative all-cause mortality)", "setting": "[1]; all non-ischemic BEST patients, 131/558", "result": 23.5, "unit": "%"}, {"measurement": "HR, cumulative all-cause mortality, bucindolol vs placebo", "setting": "[1]; all non-ischemic BEST patients, 95% CI 0.65-1.04, p=0.1", "result": 0.82}, {"measurement": "effect of bucindolol on one-year mortality", "setting": "[2]; LCM A subtype A3, at 12 months, disappeared at subsequent follow-up", "result": "marginally significant difference"}, {"measurement": "effect of bucindolol on one-year mortality", "setting": "[2]; LCM A subtype A6, did not reach statistical significance", "result": "trended towards benefit"}, {"measurement": "effect of bucindolol on one-year mortality", "setting": "[2]; LCM B subtype B2, did not reach statistical significance", "result": "trended towards benefit"}, {"measurement": "likelihood of LVEF response with bucindolol", "setting": "[3]; LCM A subtype A1", "result": "no effect"}, {"measurement": "likelihood of LVEF response with bucindolol", "setting": "[3]; LCM A subtype A2", "result": "significant increase"}, {"measurement": "absolute increase in likelihood of LVEF response", "setting": "[3]; LCM A subtype A3", "result": 24.3, "unit": "%"}, {"measurement": "likelihood of LVEF response with bucindolol", "setting": "[3]; LCM A subtype A3", "result": "significant increase"}, {"measurement": "relative increase in likelihood of LVEF response", "setting": "[3]; LCM A subtype A3", "result": 156, "unit": "%"}, {"measurement": "likelihood of LVEF response with bucindolol", "setting": "[3]; LCM A subtype A5", "result": "significant increase"}, {"measurement": "likelihood of LVEF response with bucindolol", "setting": "[3]; LCM A subtype A6", "result": "significant increase"}, {"measurement": "likelihood of improvement in LVEF", "setting": "[3]; LCM B subtype B1", "result": "reached statistical significance"}, {"measurement": "likelihood of improvement in LVEF", "setting": "[3]; LCM B subtype B2", "result": "reached statistical significance"}, {"measurement": "likelihood of improvement in LVEF", "setting": "[3]; all LCM B subtypes, relative and absolute terms", "result": "increased comparably"}]}]}
